Patent publication US12357624B2, “Low dose pridopidine for Parkinson's Disease and other diseases associated with parkinsonism” (PRILENIA NEUROTHERAPEUTICS LTD., priority 2019, dated 2025)
Read-outs that look alike come from different tables or passages of the source.

How the values were obtained:
[1] = system: CD68-immunopositive microglial cells; conditions: 1 mg/kg
Experimental: (§1) Immunohistochemistry and quantitative analyses were performed according to established protocols [Francardo V, Bez F, Wieloch T, Nissbrandt H, Ruscher K, Cenci 33. MA. Neurobiology of Disease. […] Experimental Eye Research. […] (rabbit anti-TH antiserum from Pel-Freez, Rogers, AR, 1:1000) and Cluster of Differentiation 68 (CD68) (rat anti-CD68 antiserum from AbD Serotec, Kidlington, Oxfordshire, UK; 1:1000). Quantitative analyses were performed by an experimentally blinded investigator using the following methods.
The European Journal of Neuroscience. […] Seminars in Immunopathology.

6-OHDA-lesioned mice [2] = system: 6-OHDA-lesioned mice
Experimental: (§2) The study was performed in male C57B16J mice weighing approx. 25 g and having an age of 8 to 9 weeks at the beginning of the experiments. A total of 65 wild-type mice and 52 S1R knockout (KO) mice were used. S1R knockout mice and wild-type littermates (both genders) were bred on a C57BL6J background. Our S1R KO line is derived from the well-characterized Sigmar1^Gt(OST422756)Lex mouse strain distributed by the Mutant Mouse Resource Regional Centre (MMRRC) The mice were housed under a 12-h light/dark cycle with free access to food and water.
(§3) Lesions were performed according to previously described procedures [Francardo V, Bez F, Wieloch T, Nissbrandt H, Ruscher K, Cenci 33. MA. […] Brain: A Journal of Neurology. […] 6-OHDA-HCl (Sigma-Aldrich AB, Stockholm, Sweden) was freshly dissolved in 0.02% ascorbate-saline at the concentration of 3.2 mg free base per milliliter. […] The solution was injected via a glass capillary (tip diameter−50 (1 m) at the rate of 0.5 (1 L/min, and the capillary was left in place for 2 mi after each injection.
The first injection was given immediately upon completion of lesion surgery. […] An impaired capacity to perform adjusting steps during experimenter-imposed movements (stepping test) reflects both akinetic and postural deficits relevant to PD [Blume S R, Cass D K, Tseng K Y. Stepping test in mice: a reliable approach in determining forelimb akinesia in MPTP-induced Parkinson's Disease. Experimental Neurology. […] Experimental Neurology. […] The mouse was placed at the entrance of a custom-made plastic corridor (7 cm wide, 1 m long, flanked by 10-cm-high walls), gently lifted by the tail, and pulled backwards with a fixed speed (1 m/4 s). Each trial was video-recorded, and the footage was used to count the number of adjusting steps performed by each forelimb. Trials in which mice turned their body by 90° towards the walls of the corridor (in an attempt to escape or explore) were discarded. In each session, mice were tested until 3 valid trials per animal were obtained. Results were expressed as the percentage of steps performed by the forelimb contralateral to the lesion (left) over the total number of steps (mean of 3 trials per session).

6-OHDA-lesioned mice [3] = system: 6-OHDA-lesioned mice; remark: listed apart in the source
Experimental: as §2, §3
The first injection was given immediately upon completion of lesion surgery. […] Forelimb use asymmetry during vertical exploration provides a validated measure of forelimb akinesia in hemiparkinsonian rodents [Lundblad M, Andersson M, Winkler C, Kirik D, Wierup N, Cenci M A. Pharmacological validation of behavioural measures of akinesia and dyskinesia in a rat model of Parkinson's disease. The European Journal of Neuroscience. […] The test was executed as in [Francardo V, Bez F, Wieloch T, Nissbrandt H, Ruscher K, Cenci 33. MA. […] The number of supporting wall contacts performed independently by the paw contralateral to the lesion was expressed as a percentage of all supporting wall contacts in each session.

[4] = system: TH-positive neurons in the substantia nigra compacta; conditions: 35 days
Experimental: (§4) Mice allocated to immunohistochemistry were perfusion-fixed on the day after the last rug/saline administration (interval of approx. 20 h from the last injection). Animals were deeply anesthetized with sodium pentobarbital (240 mg/kg, i.p.) and transcardially perfused with 0.9% saline solution, followed by ice-cold buffered 4% paraformaldehyde (pH 7.4). […] Coronal sections of 30 (1 m thickness were cut on a sliding microtome and stored at −20° C. in a nonfreezing solution (30% ethylene glycol and 30% glycerol in 0.1 M phosphate buffer).
as §1
The number of TH-positive cell bodies in the substantia nigra compacta (SNc) was determined using unbiased stereology according to the optical fractionator method as in [West M J. Stereological methods for estimating the total number of neurons and synapses: issues of precision and bias. Trends in Neurosciences.
Analysis was performed using a Nikon 80i microscope with an x-y motorized stage controlled by the NewCAST software (Visiopharm). The sampling fraction was chosen so as to count at least 100 neurons per side per animal following an established protocol [Francardo V, Recchia A, Popovic N, Andersson D, Nissbrandt H, Cenci M A. Impact of the lesion procedure on the profiles of motor impairment and molecular responsiveness to L-DOPA in the 6-hydroxydopamine mouse model of Parkinson's disease. Neurobiology of Disease. […] Trends in Neurosciences.

[5] = system: TH-immunoreactive fibers in the lateral striatum; conditions: chronic
Experimental: as §4, §1
Results were expressed as the total number of TH-immunopositive pixels per sample area (averaged across areas). […] The high-magnification analysis of TH fibers on random sample areas was complemented by optical density (O.D.) measurements of TH immunostaining across the entire dorsolateral and ventro-lateral striatum. […]

wild-type motor neurons = conditions: 0.1 μM, locally applied; cited from earlier work
[6] = week 1, pridopidine-treated mice (0.3 or 1.0 mg/kg)

## CCCN1CCC(c2cccc(S(C)(=O)=O)c2)CC1 [pridopidine, 4-[3-(methylsulfonyl)phenyl]-1-propyl-piperidine]
[1]; SNc
  number of CD68-immunopositive microglial cells: trend towards an effect in the SNc
[1]; ventrolateral striatum
  number of CD68-immunopositive microglial cells: not in the ventrolateral striatum
6-OHDA-lesioned mice [2]; 0.3 mg/kg s.c. daily
  stepping test performance: gradual improvement, diverging significantly from the saline-treated group on weeks 4 and 5
6-OHDA-lesioned mice [2]; 0.3 mg/kg s.c. daily, week 5
  stepping test, improvement above the vehicle (saline): ~94%
6-OHDA-lesioned mice [2]; 1.0 mg/kg s.c. daily, last 2 weeks
  stepping test performance: difference from saline-treated mice did not reach significance
6-OHDA-lesioned mice [2]; 1.0 mg/kg s.c. daily, week 5
  stepping test, difference vs sham: ~49%
6-OHDA-lesioned mice [2]; [6]
  stepping test, difference vs sham: ~60%
6-OHDA-lesioned mice [3]; 0.3 mg/kg s.c. daily
  cylinder test, contralateral forelimb use: reaching levels of performance comparable with sham-control values on weeks 4 and 5
6-OHDA-lesioned mice [3]; 1.0 mg/kg s.c. daily
  cylinder test, contralateral forelimb use: did not restore contralateral forelimb use in the cylinder test
6-OHDA-lesioned mice [3]; 1.0 mg/kg s.c. daily, week 5
  cylinder test, contralateral forelimb use, difference vs sham: ~33%
6-OHDA-lesioned mice [3]; [6]
  cylinder test, contralateral forelimb use, difference vs sham: ~40%
[4]; 0.3 mg/kg s.c. daily
  increase in TH-positive neurons relative to saline treatment: ~55%
  number of TH-positive neurons, SNc ipsilateral to the lesion: 3034 cells
[4]; 1.0 mg/kg s.c. daily
  number of TH-positive neurons, SNc ipsilateral to the lesion: ~1901 cells
[4]; 1.0 mg/kg s.c. daily, vs saline
  protection of dopaminergic cell bodies in SNc: did not, however, confer significant protection of dopaminergic cell bodies in SNc
[5]; 0.3 mg/kg s.c. daily
  TH fiber profiles, increase in median values relative to saline: about 15 fold
[5]; 1.0 mg/kg s.c. daily
  TH fiber profiles vs saline: did not achieve statistical significance
wild-type motor neurons
  mitochondria transport velocity in axons: accelerates mitochondria transport in axons
